{"source": "patent US9884857B2", "about": "“Salts of dasatinib in amorphous form” (BASF SE, priority 2013, dated 2018)", "key": {"[1]": {"conditions": "11 months of storage at room temperature (Example 1: closed glass vial)", "method": "Powder X-Ray Diffraction:\nThe measurements are carried out with a Bruker D8 Advance powder X-ray diffractometer using Cu Kα radiation in the Bragg-Brentano reflection geometry. Generally, the 2θ values are accurate within an error of ±0.1-0.2°. The relative peak intensities can vary considerably for different samples of the same crystalline form because of different preferred orientations of the crystals. The samples are prepared without any special treatment other than the application of slight pressure to get a flat surface. Generally, silicon single crystal sample holders of 0.1 mm, 0.5 mm or 1.0 mm depth are used. The tube voltage and current are 40 kV and 40 mA, respectively. The X-ray diffractometer is equipped with a LynxEye detector. A variable divergence slight is used with a 3° window. The step size is 0.02° 2θ with a step time of 37 seconds. The samples are rotated at 0.5 rps during the measurement."}, "[2]": {"conditions": "after two hours equilibration at 25° C.; resulting pH value 4.6", "procedure": "Solubility Determinations:\nSolubility determinations are carried out in pure water at 25±2° C. Suspensions with about 10 mg salt in 0.5 mL water are prepared and equilibrated for two hours before the solution phase is filtered off and tested by HPLC.\nHPLC is carried out on an Agilent 1100 HPLC chromatograph equipped with a UV-vis detection unit. […] The column type used is a Waters XTerra MS C18, 250×4.6 mm, 5 μm (FK-CC14). The method as referenced above is an isocratic method using an aqueous ammonium acetate/acetic acid and methanol with a ratio of 55/45. The applied flow rate is 1.0 mL per minute, the injection volume is 20 microliter and the detection wavelength is 321 nm."}, "[3]": {"conditions": "heating rate 10° C. per minute, dried sample", "method": "Differential scanning calorimetry: DSC is carried out with a TA Instruments DSC Q2000 using hermetically sealed gold sample pans. The heating rate is 10° C. per minute. Samples are dried under nitrogen before sample pans are closed under nitrogen."}}, "data": [{"smiles": "Cc1nc(Nc2ncc(C(=O)Nc3c(C)cccc3Cl)s2)cc(N2CCN(CCO)CC2)n1.O=C1NS(=O)(=O)c2ccccc21", "note": "[Example 1, Dasatinib saccharinate]", "values": [{"measurement": "crystalline material by powder X-ray diffraction after storage", "setting": "[1]", "value": "no crystalline material was present"}, {"measurement": "aqueous solubility", "setting": "[2]", "value": 1330, "unit": "µg/mL"}, {"measurement": "glass transition (DSC step)", "setting": "[3]", "value": "~130", "unit": "°C"}]}, {"smiles": "Cc1nc(Nc2ncc(C(=O)Nc3c(C)cccc3Cl)s2)cc(N2CCN(CCO)CC2)n1.O=C(O)CCCC(=O)O", "note": "[Example 2, Dasatinib glutarate]", "values": [{"measurement": "crystalline material by powder X-ray diffraction after storage", "setting": "[1]", "value": "no crystalline material is present"}]}, {"smiles": "Cc1nc(Nc2ncc(C(=O)Nc3c(C)cccc3Cl)s2)cc(N2CCN(CCO)CC2)n1.O=C(O)c1cccnc1", "note": "[Example 3, Dasatinib nicotinate]", "values": [{"measurement": "crystalline material by powder X-ray diffraction after storage", "setting": "[1]", "value": "no crystalline material is present"}]}, {"smiles": "Cc1nc(Nc2ncc(C(=O)Nc3c(C)cccc3Cl)s2)cc(N2CCN(CCO)CC2)n1.O=C1NS(=O)(=O)c2ccccc21", "note": "[Example 4, Dasatinib saccharinate]", "values": [{"measurement": "glass transition (DSC step)", "setting": "[3]", "value": "about 113 °C"}]}]}
